How the values were obtained:
Type in all cases: in vivo
rice = test: Test Example 4: effect on crop by soil treatment (symbol b)
Summary of the method: (§1)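 Greenhouse culture at 25° C. to 30° C. followed sowing of seed in spots on sterilized diluvial soil with a soil cover close to 1.5 cm thick.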

wheat = test: Test Example 4: effect on crop by soil treatment (symbol e)
Summary of the method: as §1

Cyperus difformis = test: Test Example 3: herbicidal effect by foliage application, Wagner pot (symbol E); details: application herbicide amount 320 g/ha
Summary of the method: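 Foliar spray of water-diluted emulsion formulation at a predetermined herbicide amount onto 14-day-old plants in flooded alluvial soil (water depth 0.1–0.5 cm), greenhouse 25–30 °C; rice sown alongside. Scored 3 wk post-application on set criteria.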

Monochoria vaginalis = test: Test Example 2: herbicidal activity, application during weed generation in submerged conditions (symbol C); details: Table 23; application herbicide amount 320 g/ha; grade 0-5 by criteria of Test Example 1
Summary of the method: (§2)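 Paddy pot test, submerged (4 cm water), alluvial soil, mixed sowing; greenhouse 25–30° C. Emulsion formulation diluted to predetermined rate, applied onto floodwater at 1–2 leaf stage. Visual herbicidal rating at 3 wk post-treatment.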

transplanted rice plant = test: Test Example 1: effect on crop, application before weed generation in submerged conditions (symbol a); details: application herbicide amount 320 g/ha
Summary of the method: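 Alluvial soil pots flooded to 4 cm water, sown with Echinochloa oryzacola, Scirpus juncoides and Monochoria vaginalis, then transplanted with 2.5 leaf stage rice seedlings; pre-emergence application. Greenhouse 25° C. to 30° C.; scored 0–5 by herbicidal ratio 3 weeks after application.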

Scirpus juncoides = test: Test Example 2: herbicidal activity, application during weed generation in submerged conditions (symbol B); details: Table 23; application herbicide amount 320 g/ha; grade 0-5 by criteria of Test Example 1
Summary of the method: as §2

[1] = test system: Echinochloa oryzacola Vasing.; test: Test Example 1: herbicidal activity, application before weed generation in submerged conditions (symbol A); details: application herbicide amount 320 g/ha
Summary of the method: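 Ratings (5: ≥90%, near complete withering; 4: 70–<90%; 3: 40–<70%; 2: 20–<40%; 1: 5–<20%; 0: ≤5%) were assigned 3 weeks after the diluted emulsion was applied to the water surface of freshly sown, submerged pots.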

Avena fatua = test: Test Example 5: herbicidal effect by foliage application, plastic box (symbol I); details: 320 g/ha, 3 weeks after application
Summary of the method: (§3)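 After sowing into sterilized diluvial soil and growing two weeks under glass at 25° C. to 30° C., seedlings receive a uniform foliar spray of diluted emulsion. Damage is judged visually three weeks on.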

soybean = test: Test Example 4: effect on crop by soil treatment (symbol d)
Summary of the method: as §1

Lolium multiflorum Lam. = test: Test Example 5: herbicidal effect by foliage application, plastic box (symbol K); details: 320 g/ha, 3 weeks after application
Summary of the method: as §3

corn = test: Test Example 5: effect on crop by foliage application, plastic box (symbol c); details: 320 g/ha, 3 weeks after application
Summary of the method: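 Sterilized diluvial soil, plastic box (21 × 13 × 7 cm); spot sowing, ~1.5 cm soil cover; greenhouse 25–30° C.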

[2] = test system: directly sowed rice plant; test: Test Example 3: effect on crop by foliage application, Wagner pot (symbol b); details: application herbicide amount 320 g/ha
Summary of the method: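 Greenhouse culture at 25–30 °C of seeded rice, Cyperus difformis, Leptochloa chinensis and Echinochloa crus-galli var. crus-galli, in alluvial soil held under 0.1–0.5 cm of water in a Wagner pot.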

Chenopodium album = test: Test Example 5: herbicidal effect by foliage application, plastic box (symbol O); details: 320 g/ha, 3 weeks after application
Summary of the method: as §3

[3] = application herbicide amount 320 g/ha

Row | Structure (SMILES) | b (directly sowed rice plant) effect on crop grade (rice; [3]) | e (wheat) effect on crop grade (wheat; [3]) | herbicidal effect on E, grade 0-5 (Cyperus difformis) | Herbicidal effect grade, C: Monochoria vaginalis (Monochoria vaginalis) | Effect grade on crop, a: transplanted rice plant (transplanted rice plant) | Herbicidal effect grade, B: Scirpus juncoides (Scirpus juncoides) | Herbicidal effect grade, A: Echinochloa oryzacola Vasing. [1] | I: Avena fatua, herbicidal effect grade (Avena fatua) | d (soybean) effect on crop grade (soybean; [3]) | K: Lolium multiflorum Lam., herbicidal effect grade (Lolium multiflorum Lam.) | c: corn, effect on crop grade (corn) | effect on crop b (directly sowed rice plant), grade 0-5 [2] | other results
1 | CCCCCCCCC(=O)OC1=C(c2c(C)cc(C)cc2C)C(=O)C(CC(C)=NOC)C1 (centres unmarked) [1-033] | 5 (Herbicidal ratio of 90% or more (almost completely withered)) | 5 (Herbicidal ratio of 90% or more (almost completely withered)) | 5 (Herbicidal ratio of 90% or more (almost completely withered)) | 2 (Herbicidal ratio of 20% or higher and lower than 40%) | 5 (Herbicidal ratio of 90% or more (almost completely withered)) | 4 (Herbicidal ratio of 70% or higher and lower than 90%) | 5 (Herbicidal ratio of 90% or more (almost completely withered)) | 5 (Herbicidal ratio of 90% or more (almost completely withered)) | 0 (Herbicidal ratio of 5% or lower (almost no effect)) | 5 (Herbicidal ratio of 90% or more (almost completely withered)) | 4 (Herbicidal ratio of 70% or higher and lower than 90%) | 5 (Herbicidal ratio of 90% or more (almost completely withered)) | –
2 | CON=C(C)CC1CC(OC(=O)CCC2CCCCC2)=C(c2c(C)cc(C)cc2C)C1=O (centres unmarked) [1-035] | 5 (Herbicidal ratio of 90% or more (almost completely withered)) | 4 (Herbicidal ratio of 70% or higher and lower than 90%) | 5 (Herbicidal ratio of 90% or more (almost completely withered)) | 4 (Herbicidal ratio of 70% or higher and lower than 90%) | – | 4 (Herbicidal ratio of 70% or higher and lower than 90%) | 5 (Herbicidal ratio of 90% or more (almost completely withered)) | 5 (Herbicidal ratio of 90% or more (almost completely withered)) | 0 (Herbicidal ratio of 5% or lower (almost no effect)) | 5 (Herbicidal ratio of 90% or more (almost completely withered)) | 4 (Herbicidal ratio of 70% or higher and lower than 90%) | 5 (Herbicidal ratio of 90% or more (almost completely withered)) | –
3 | CON=C(C)CC1CC(OC(=O)C(C)(C)F)=C(c2c(C)cc(C)cc2C)C1=O (centres unmarked) [1-039] | 5 (Herbicidal ratio of 90% or more (almost completely withered)) | 4 (Herbicidal ratio of 70% or higher and lower than 90%) | 5 (Herbicidal ratio of 90% or more (almost completely withered)) | 3 (Herbicidal ratio of 40% or higher and lower than 70%) | 5 (Herbicidal ratio of 90% or more (almost completely withered)) | 5 (Herbicidal ratio of 90% or more (almost completely withered)) | 5 (Herbicidal ratio of 90% or more (almost completely withered)) | 5 (Herbicidal ratio of 90% or more (almost completely withered)) | 0 (Herbicidal ratio of 5% or lower (almost no effect)) | 5 (Herbicidal ratio of 90% or more (almost completely withered)) | 4 (Herbicidal ratio of 70% or higher and lower than 90%) | 5 (Herbicidal ratio of 90% or more (almost completely withered)) | –
4 | CON=C(C)CC1CC(OC(=O)COc2ccc(Cl)cc2)=C(c2c(C)cc(C)cc2C)C1=O (centres unmarked) [1-044] | 5 (Herbicidal ratio of 90% or more (almost completely withered)) | 2 (Herbicidal ratio of 20% or higher and lower than 40%) | 5 (Herbicidal ratio of 90% or more (almost completely withered)) | 3 (Herbicidal ratio of 40% or higher and lower than 70%) | 5 (Herbicidal ratio of 90% or more (almost completely withered)) | 4 (Herbicidal ratio of 70% or higher and lower than 90%) | 5 (Herbicidal ratio of 90% or more (almost completely withered)) | 5 (Herbicidal ratio of 90% or more (almost completely withered)) | 0 (Herbicidal ratio of 5% or lower (almost no effect)) | 5 (Herbicidal ratio of 90% or more (almost completely withered)) | 4 (Herbicidal ratio of 70% or higher and lower than 90%) | 5 (Herbicidal ratio of 90% or more (almost completely withered)) | –
5 | C=CC(CC1CC(O)=C(c2c(C)cc(C)cc2C)C1=O)=NOC (centres unmarked) [1-086] | – | – | 4 (Herbicidal ratio of 70% or higher and lower than 90%) | – | 3 (Herbicidal ratio of 40% or higher and lower than 70%) | 0 (Herbicidal ratio of 5% or lower (almost no effect)) | 5 (Herbicidal ratio of 90% or more (almost completely withered)) | – | – | – | – | 5 (Herbicidal ratio of 90% or more (almost completely withered)) | b: directly sowed rice plant, effect grade on crop (rice; 320 g/ha): 5 (Herbicidal ratio of 90% or more (almost completely withered)); e: wheat, effect grade on crop (wheat; 320 g/ha): 0 (Herbicidal ratio of 5% or lower (almost no effect)); I: Avena fatua, herbicidal effect (criteria 0-5) (Avena fatua): 4 (Herbicidal ratio of 70% or higher and lower than 90%); O: Chenopodium album, herbicidal effect (criteria 0-5) (Chenopodium album): 0 (Herbicidal ratio of 5% or lower (almost no effect)); d: soybean, effect grade on crop (soybean; 320 g/ha): 0 (Herbicidal ratio of 5% or lower (almost no effect)); K: Lolium multiflorum Lam., herbicidal effect (criteria 0-5) (Lolium multiflorum Lam.): 5 (Herbicidal ratio of 90% or more (almost completely withered)); c: corn, effect on crop (criteria 0-5) (corn): 3 (Herbicidal ratio of 40% or higher and lower than 70%)
6 | CC#Cc1cc(C)c(C2=C(OC(=O)COc3ccccc3)CC(CC(=NOC)C(C)C)C2=O)c(C)c1 (centres unmarked) [9-003] | – | – | – | – | 5 (Herbicidal ratio of 90% or more (almost completely withered)) | 4 (Herbicidal ratio of 70% or higher and lower than 90%) | 5 (Herbicidal ratio of 90% or more (almost completely withered)) | 4 (Herbicidal ratio of 70% or higher and lower than 90%) | – | 5 (Herbicidal ratio of 90% or more (almost completely withered)) | 5 (Herbicidal ratio of 90% or more (almost completely withered)) | – | Effect on crop grade, b: directly sowed rice plant (rice; [3]): 5 (Herbicidal ratio of 90% or more (almost completely withered)); Effect on crop grade, e: wheat (wheat; [3]): 4 (Herbicidal ratio of 70% or higher and lower than 90%); E herbicidal effect grade (Cyperus difformis; Table 24): 5 (Herbicidal ratio of 90% or more (almost completely withered)); O: Chenopodium album, herbicidal effect grade (Chenopodium album): 3 (Herbicidal ratio of 40% or higher and lower than 70%); Effect on crop grade, d: soybean (soybean; [3]): 0 (Herbicidal ratio of 5% or lower (almost no effect)); b (directly sowed rice plant) effect on crop grade ([2]; Table 24): 5 (Herbicidal ratio of 90% or more (almost completely withered))

Source: US11000033B2, “Ketone or oxime compound, and herbicide” (NISSAN CHEMICAL CORPORATION, priority 2014, dated 2021)
